Source: US20240019429A1, “METHODS AND RELATED ASPECTS FOR DETERMINING BINDING KINETICS OF LIGANDS” (ARIZONA BOARD OF REGENTS ON BEHALF OF ARIZONA STATE …, priority 2022, published 2024)

Columns and labels:
calmodulin = target: T1, calmodulin (Homo sapiens, UniProt P0DP23); assay: SPR-OBL equilibrium analysis of ion binding to calmodulin OBL; conditions: equilibrium analysis of AC response, 100 times diluted PBS buffer
T1 construct: purchased Sigma Aldrich
Excerpt: Calmodulin is a calcium sensing protein that plays a central role in cell signaling, muscle contraction and cell division. We fabricated a calmodulin OBL and flowed different concentrations of Ca^2+ over the surface. The binding of Ca^2+ to calmodulin would lead to charge and conformation change of the OBL but with small mass change (FIG. 7a). […] Thus, we only measured the magnitude of the equilibrium state. […] We note that calmodulin is negatively charged, so Ca^2+ binding should decrease the amplitude of the AC signal. The increase of AC signal in FIG. 7b is due to artifacts in data processing when correcting the background charging. The raw data has decreased signal but much lower signal-to-noise ratio (not shown). Magnesium would also bind to calmodulin with a lower affinity compared with calcium.
(§1) Binding kinetics measurement.

streptavidin OBL = target: T2, streptavidin OBL (Streptomyces avidinii, UniProt P22629); assay: Control experiment: small molecules injected to streptavidin OBL without nanodisc; assay type: binding; conditions: streptavidin OBL without nanodisc at 30° C.
T2 construct: purchased Thermo Fisher Scientific
T2 sequence (P22629 37-163 limits assumed): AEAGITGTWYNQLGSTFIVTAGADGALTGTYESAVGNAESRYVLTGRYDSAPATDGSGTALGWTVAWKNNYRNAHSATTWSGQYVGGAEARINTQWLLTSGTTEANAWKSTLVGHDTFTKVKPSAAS
Excerpt: Unlike macromolecules that are inclined to have both mass and charge changes upon binding, small molecules are more likely to have charge change with little mass change. As such, measuring charge could be more sensitive for small molecules. To highlight this advantage of SRR-OBL and its potential for drug screening, we measured two small molecule drug candidates, compound 1 and PAP-1, binding to their target KcsA-Kv1.3, which is a chimeric membrane protein. The KcsA-Kv1.3 was encapsulated in a self-assembled phospholipid bilayer nanodisc that provides a nativelike environment for the membrane proteins to retain the structure and function. Despite the importance of membrane protein as drug targets, measuring the interaction with small molecule drug candidates has been challenging for traditional mass-sensitive technologies, due to the huge mass difference between the small molecule and the membrane protein complex. Before adding samples, 40 times diluted nanodisc buffer was flowed over the surface for 200 seconds to establish the baseline. The binding of the small molecule to KcsA-Kv1.3 nanodisc caused a charge change on the OBL, which leads to an AC response. […]
(§2) Fabrication of OBL. […] The surface coverage of streptavidin on the PEG layer was measured to be 64%, and 46% of the streptavidin could oscillate effectively. […]

KcsA-Kv1.3 = assay: SPR-OBL binding kinetics of small molecules to KcsA-Kv1.3 nanodisc on streptavidin OBL; conditions: AC response, 40 times diluted nanodisc buffer
Excerpt: Unlike macromolecules that are inclined to have both mass and charge changes upon binding, small molecules are more likely to have charge change with little mass change. As such, measuring charge could be more sensitive for small molecules. To highlight this advantage of SRR-OBL and its potential for drug screening, we measured two small molecule drug candidates, compound 1 and PAP-1, binding to their target KcsA-Kv1.3, which is a chimeric membrane protein. The KcsA-Kv1.3 was encapsulated in a self-assembled phospholipid bilayer nanodisc that provides a nativelike environment for the membrane proteins to retain the structure and function. Despite the importance of membrane protein as drug targets, measuring the interaction with small molecule drug candidates has been challenging for traditional mass-sensitive technologies, due to the huge mass difference between the small molecule and the membrane protein complex. Before adding samples, 40 times diluted nanodisc buffer was flowed over the surface for 200 seconds to establish the baseline. The binding of the small molecule to KcsA-Kv1.3 nanodisc caused a charge change on the OBL, which leads to an AC response. As mentioned before, small molecule would only introduce a minor mass change. Therefore, the DC response of OBL is not obvious. […] According to a previous study that temperature would influence the binding kinetics between KcsA-Kv1.3 and small molecule due to the effect on the flexibility of lipid bilayer, we repeated the experiment under 30° C. and found the kinetic constants became (2.7±0.5)×10^4 M^−1s^−1, (1.9±0.4)×10^−2 s^−1 and 6.8±1.2×10 2 nM, as shown in FIG. 6c. The results are close to the value in literature. […] To verify the binding was specific, we performed control experiments by directly injecting compound 1 and PAP-1 to a streptavidin OBL without nanodisc at 30° C.
Fabrication of OBL. The sensor chip (a cover glass coated with 43 nm Au) was rinsed by DI water and ethanol for twice. Then it was annealed by hydrogen flame to further remove surface contaminants. To fabricate the streptavidin OBL, the chip was first dipped in a mixture of 1 mM thiol-PEG2k and 100 μM thiol-PEG10k-bioitin in 1×PBS overnight. The chip was dried with N2 and a silicone cell was mounted on the chip surface for holding solution. Next, the surface was incubated in 0.2 mg/mL streptavidin in PBS for 30 mins. The functionalized surface was carefully rinsed with PBS for 6 times. Note that the solution should not be completely removed from the cell during the rinsing process, and any air bubbles should be avoided as well, because the tethered protein could be irreversibly absorbed on the surface once exposed to air. The surface coverage of streptavidin on the PEG layer was measured to be 64%, and 46% of the streptavidin could oscillate effectively. The streptavidin OBL was later used to couple biotinylated proteins. To couple KcsA-Kv1.3 nanodisc, 70 μg/mL biotinylated KcsA-Kv1.3 nanodisc in nanodisc buffer was added to the cell and incubated for 30 min. Similarly, the biotinylated SRCtide was immobilized on the streptavidin OBL by incubating in 33 μg/mL SRCtide in kinase buffer containing 5 mM MgCl2 and 1 mM HEPES (pH 7.4) for 30 mins.
as §1

Src kinase = target: T3, Src kinase (Homo sapiens, UniProt P12931); assay: SPR-OBL phosphorylation kinetics of SRCtide by Src kinase; assay type: biochemical; conditions: ATP present
T3 construct: The active full length SRC protein was purchased from Abcam; purchased Abcam
Excerpt: Since SPR-OBL is able to record mass and charge changes at the same time, it is particularly suitable for studying complex enzymatic processes that involve multiple kinetic steps and size and charge changes. Phosphorylation is one of such reactions that includes binding of the kinase to the substrate, adding a phosphate to the substrate, and unbinding of the kinase, where each step accompanies mass or charge change. Despite the importance of phosphorylation in many basic cellular signaling processes and its close relationship with various diseases and cancers, traditional techniques including fluorescence, western blot, and mass spectrometry are unable to resolve the kinetic process in real-time, and each kinetic step needs to be measured separately, limiting the measurement efficiency. In contrast, SPR-OBL can measure multiple steps of the enzyme catalytic reaction in real-time and extract several kinetic parameters in a single measurement. We studied the phosphorylation of SRCtide as an example. SRCtide that was a peptide containing 14 amino acid with the sequence GEEPLYWSFPAKKK (SEQ ID NO: 1) was modified on a streptavidin OBL, which serves as the substrate of the enzyme Src kinase. […]
where E and S are the enzyme and substrate, ES is the complex, and P is the phosphorylated product, respectively; and k denotes the kinetic constant in each step. We measured the SPR-OBL response of different concentrations of Src in the presence of ATP and the results are shown in FIG. 8b. […]
where [E0], [S0] and [P] are concentration of SRC, SRCtide and the product, respectively. The Michaelis constant (KM) and catalytic constant (k2) can be determined to be 4.4 nM and 5.5×10^−4 s^−1 by fitting the AC component (FIG. 8d) to Eq. 1. Knowing KM and k2 the association rate constant (k1) and dissociation rate constant (k−1) can be determined by fitting the DC component (FIG. 8c) to the following equations: […]
as §2

Question: `[Ca+2]` [Ca^2+, calcium ion] was tested. Which Kd (calmodulin) did it give?
Answer: The Kd was 1.9 µM.

Question: Which Kd (calmodulin) does the source give for `[Mg+2]` [Mg^2+, Magnesium] here?
Answer: Its Kd is 35 µM.

Question: Which “response on streptavidin OBL (nonspecific binding control)” value (streptavidin OBL) does the source give for `O=c1ccc2c(OCCCCOc3ccccc3)c3ccoc3cc2o1` [PAP-1] here?
Answer: The value was “only small response”.

Question: And the Kd (KcsA-Kv1.3; 25° C.)?
Answer: The Kd was 65 ± 11 µM.

Question: What about the ka (KcsA-Kv1.3; 25° C.) of the same compound?
Answer: The ka was “(3.8±0.6)×10^2 M^−1 s^−1”.

Question: And the kd (KcsA-Kv1.3; 25° C.)?
Answer: Its kd is “(2.3±0.1)×10^−2 s^−1”.

Question: What about the Kd (KcsA-Kv1.3; 30° C.) of the same compound?
Answer: The Kd was 210 µM.

Question: What about the ka (KcsA-Kv1.3; 30° C.) of the same compound?
Answer: Its ka is “(4.8±0.4)×10^2 M^−1s^−1”.

Question: What about the kd (KcsA-Kv1.3; 30° C.) of the same compound?
Answer: Its kd is “(9.6±1.1)×10^−2 s^−1”.

Question: With “SRCtide: peptide containing 14 amino acid with the sequence GEEPLYWSFPAKKK (SEQ ID NO: 1), substrate of Src kinase” as the compound, how does the “catalytic constant (k2)” value (Src kinase; fit of AC component to Eq. 1 (EQSS)) read?
Answer: Its value is 0.00055 s⁻¹.

Question: And the “association rate constant (k1)” value (Src kinase; fit of DC component)?
Answer: The value was 1.3×10^4.

Question: And the “dissociation rate constant (k−1)” value (Src kinase; fit of DC component)?
Answer: Its value is 2e-06 s⁻¹.
